The source of these data is patent US20130053435A1, “Methods of Treating Alcohol Intoxication, Alcohol Use Disorders and Alcohol Abuse Which Comprises the Administration of Dihydromyricetin” (priority 2011, published 2013).

The experiment has as its system T1, GABAARs.
T1 construct: DHM-enhanced Itonic; EC50 on GABAAR-mediated Itonic; other: control (vehicle) cultured neurons, DIV14; other: cultured neurons with EtOH exposure/withdrawal (60 mM, 30 min, 24 hr); EtOH-potentiated Itonic; GABAAR-mediated Ito
In words: Whole-cell patch-clamp, DGCs in hippocampal slices, acute drug application. It is filed as cell-based, rat. The procedure:
Transverse slices (400 μm) of dorsal hippocampus were obtained with a Vibratome (VT 100, Technical Products International, St. Louis, Mo.) and standard techniques known in the art. Slices were continuously perfused with artificial cerebrospinal fluid (ACSF).
Signals were recorded in voltage-clamp mode with a […] amplifier (Molecular Devices, Sunnyvale, Calif.). Whole cell access resistances were in the range of <25 MΩ before electrical compensation by about 70%. During voltage-clamp recordings, access resistance was monitored by measuring the size of the capacitative transient in response to a 5 mV step command and the data were abandoned if changes >20% were encountered. At least 10 min was allowed for equilibration of the pipette solution with the intracellular milieu before commencing mIPSC recordings.
Data were analyzed using the Clampfit (Version 9.0, Molecular Devices) and the MiniAnalysis Program (versions 6.0.7, Synaptosoft, Decatur, Ga.).
The MiniAnalysis program (Synaptosoft, Decatur, Ga.) was used to analyze mIPSCs. Itonic is the averaged baseline currents of a given recording period. Itonic amplitude was calculated as the difference between the holding currents measured before and after picrotoxin (100 μM) or bicuculline (10 μM). […] Briefly, the recordings were low-pass filtered off-line (Clampfit software) at 2 kHz. The mIPSCs were detected (Mini Analysis Program, version 6.0.7) with threshold criteria of 8 pA amplitude and 20 pA*ms charge transfer. The frequency of mIPSCs was determined from all automatically detected events in a given 100 s recording period. For kinetic analysis, only single event mIPSCs with a stable baseline, sharp rising phase (10 to 90% rise time), and exponential decay were chosen during visual inspection of the recording trace. Double and multiple peak mIPSCs were excluded. At least 100 individual mIPSC events were recorded under each experimental condition. The mIPSC kinetics was obtained from analysis of the averaged chosen single events aligned with half rise time in each cell. Decay time constants were obtained by fitting a double exponential to the falling phase of the averaged mIPSCs. Itonic magnitudes were obtained from the averaged baseline current of a given recording period. Itonic amplitude was calculated as the difference between the holding currents measured before and after the application of picrotoxin (50 μM) or bicuculline (10 μM). […] The investigator performing the recordings and mIPSC analysis was blind to the treatment (vehicle, EtOH, E+D, or D) that the rats received.
As performed previously, whole-cell patch-clamp recordings in dentate gyms granule cells (DGCs) from hippocampal slices in vitro were conducted.
In general terms: The patch-clamp technique gives a direct electrical read-out from membranes.

For the compound `O=C1c2c(O)cc(O)cc2O[C@H](c2cc(O)c(O)c(O)c2)[C@H]1O` [DHM, (2R,3R)-3,5,7-trihydroxy-2-(3,4,5-trihydroxyphenyl)-2,3-dihydrochromen-4-one], the “GABAAR-mediated Itonic” value (DHM 0.3 μM, DGCs from naïve rats) is listed as 29.0±6.7 pA. The compound further came in with an Itonic (DHM 1 μM, DGCs in hippocampal slices) of 44.0±4.1 pA. The “Itonic in presence of DHM plus EtOH” value (DHM (0.3 μM) followed by co-application of 60 mM EtOH) is 44.4±3.6 pA. Moreover, the “Itonic in presence of DHM before EtOH” value (DHM (0.3 μM, FIG. 3 panel c) before EtOH) came to 41.1±2.2 pA. For the same compound, the “EtOH-potentiated Itonic” value was 21.0±0.9 pA (EtOH 60 mM + DHM 3 μM) and 32.0±2.0 pA (EtOH 60 mM followed by co-application of 1 μM DHM). For the setting “comparative experiments, rat hippocampal slices”, the “effect on extrasynaptic GABAAR-mediated tonic current (Itonic)” value is reported as “potentiates”.
